Reference: patent US20240261290A1, “PHARMACEUTICAL COMPOSITION COMPRISING 7-(4-CHLOROBENZYL)-1-(3-HYDROXYPROPYL)-3-METHYL-8-(3-(TRIFLUOROMETHOXY)-PHENOXY)-3,7-DIHYDRO-1H-PURINE-2,6-DIONE” (Boehringer Ingelheim International GmbH, priority 2023, published 2024)

What was measured:
[1] = Lipophilicity (logP) of Compound 1; type: physicochemical
[2] = Aqueous solubility of Compound 1; type: physicochemical; details: under acidic to neutral conditions

For `Cn1c(=O)n(CCCO)c(=O)c2c1nc(Oc1cccc(OC(F)(F)F)c1)n2Cc1ccc(Cl)cc1` [Compound 1, 7-(4-chlorobenzyl)-1-(3-hydroxypropyl)-3-methyl-8-(3-(trifluoromethoxy)-phenoxy)-3,7-dihydro-1H-purine-2,6-dione], which logP [1] is on record?
The logP was 5.2.

And the aqueous solubility [2]?
Its aqueous solubility is “low aqueous solubility”.
